Reference: PMC9093646, “Physicochemical and Biochemical Evaluation of Amorphous Solid Dispersion of Naringenin Prepared Using Hot-Melt Extrusion” (Frontiers in Nutrition, 2022)
In brackets after ≈: the same amount, converted by molar mass.

Key:
[1] = set-up: method as in PMID 17047689; details: humans; cited from earlier work
[2] = test system: acetic acid-induced writhing in rats; assay: Acetic acid-induced writhing test; assay type: in vivo, rat; details: oral 5 min before i.p. acetic acid, counted over 25 min, crystalline NRG 100 mg/kg, NRG SD 30 or 100 mg/kg
Protocol: The acetic acid-induced writhing test was performed according to the method of Pinho-Ribeiro et al. ([8]) with modifications. Rats aged 5–7 weeks were fasted for 16 h and divided into four groups of eight animals per group. The first group was intragastrically administered 10 mL/kg saline as a control. The second group was intragastrically administered crystalline NRG at 100 mg/kg BW. The third and fourth groups were intragastrically administered NRG SD equivalent to 30 mg/kg and 100 mg/kg BW NRG, respectively. After 5 min, each rat was intraperitoneally injected with 10 mL/kg of 0.8% (v/v) acetic acid in saline solution. Visceral pain intensity was quantified by enumerating the abdominal writhing within 0–25 min after the stimulus. The writhing response was characterized by the contraction of abdominal muscles and stretching of the hind limbs.

[3] = Pharmacokinetics after intravenous administration of serum containing unchanged NRG and NRG metabolites; assay type: in vivo, rat; details: rats
Protocol: The same amount of NRG SD was intragastrically administered 5 min later. Blood was collected from the heart under isoflurane anesthesia 35 min after the first administration and stored at 4°C for several hours. Serum was then isolated by centrifugation and analyzed by liquid chromatography-tandem mass spectrometry (LC-MS/MS). […] Serum containing the unchanged NRG and NRG metabolites was administered via the tail vein at a dose of 500 μL/rat. […] The plasma was isolated by centrifugation. […] The mixture was centrifuged at 4°C, and 25 μL supernatant was collected and mixed with 75 μL of 30% (v/v) acetonitrile. […] The samples were incubated at 37°C overnight and extracted using the same method that was employed for those containing the unchanged NRG. LC-MS/MS analysis was performed using an ACQUITY UPLC system (Waters Corp., Milford, MA, United States) fitted with a cooling autosampler and a column oven with temperature control. Mass spectrometry was performed using a Waters Xevo TQ-S tandem quadrupole mass spectrometer (QQ-MS; Waters Corp.). Chromatographic separation was performed on an ACQUITY UPLC BEH C18 1.7 μm column (50 mm × 2.1 mm; Waters Corp.). […] The flow rate was set at 0.5 mL/min. The sample injection volume was 5 μL. […]. Positive electrospray ionization was used to generate the parental ions. Multiple reaction monitoring, using precursor → product ion transitions of m/z 273.04 → 152.97 and m/z 255.10 → 198.99, was used to quantify NRG and daidzein (internal standard), respectively.

Solubility test (HPLC) = assay type: physicochemical; details: aqueous buffer, thermodynamic from solid, dissolution test solution 2 (pH 6.8), 37°C, read-out: water solubility
Protocol: The prepared NRG SD (500 mg; equivalent to 50 mg NRG) was added to 2.5 mL dissolution test solution 2. The mixture was shaken vigorously at 37°C for 30 min and centrifuged ([15], [17]). The supernatant was then passed through a 0.2-μm filter and subjected to high-performance liquid chromatography (HPLC) analysis. The NRG concentration was determined using an HPLC system fitted with the LC-20AD pump and the SPD-M20 detector (Shimadzu Corp., Kyoto, Japan) ([15]). A reverse-phase column (CAPCELL PAK C18 MGII; 4.6 mm × 100 mm; 5 μm; Shiseido Co., Ltd., Tokyo, Japan) was operated at 40°C. The mobile phase consisted of a methanol-water (45:55, v/v) mixture with 0.05% (v/v) phosphoric acid, and it was ultrasonically degassed before use. The flow rate was set at 1 mL/min, and the detection wavelength was set at 289 nm. The sample injection volume was 10 μL. The HPLC was calibrated using standard methanol-water (50:50, v/v) NRG solutions in the concentration range of 0.125–40 μg/mL.

[4] = Dissolution test, Japanese Pharmacopoeia paddle method; assay type: physicochemical; details: test solution 1 (pH 1.2), after 120 min
Protocol: The dissolution test was conducted using the paddle method described in the Japanese Pharmacopoeia ([26]). First, 900 mL dissolution test solution 1 or 2 was placed in the dissolution tester vessel and then 30 mg of crystalline NRG, 300 mg of PM, and 300 mg of SD were added to it. The temperature (37°C) and stirring rate (100 rpm) were maintained during the experiment. Samples were collected 2, 5, 10, 20, 30, 45, 60, 90, and 120 min after sample addition. The solutions were passed through 0.2-μm filters, and the filtrates were subjected to HPLC analysis.

[5] = Pharmacokinetics after oral administration; assay type: in vivo, rat; details: rats, equivalent to 100 mg/kg NRG
Protocol: Each solution was suspended in ion-exchange water immediately prior to administration. […] The blood was stored in heparinized hematocrit tubes, and the plasma was isolated by centrifugation. […] The samples were incubated at 37°C overnight and extracted using the same method that was employed for those containing the unchanged NRG. LC-MS/MS analysis was performed using an ACQUITY UPLC system (Waters Corp., Milford, MA, United States) fitted with a cooling autosampler and a column oven with temperature control. Mass spectrometry was performed using a Waters Xevo TQ-S tandem quadrupole mass spectrometer (QQ-MS; Waters Corp.). Chromatographic separation was performed on an ACQUITY UPLC BEH C18 1.7 μm column (50 mm × 2.1 mm; Waters Corp.). […] Positive electrospray ionization was used to generate the parental ions. Multiple reaction monitoring, using precursor → product ion transitions of m/z 273.04 → 152.97 and m/z 255.10 → 198.99, was used to quantify NRG and daidzein (internal standard), respectively.

For `O=C1C[C@@H](c2ccc(O)cc2)Oc2cc(O)cc(O)c21` [NRG, Naringenin], the “cumulative urinary excretion rate relative to the oral NRG dose” value [1] is given as about 5.8%, the “number of writhings compared to the control” value [2] is given as “significantly decreased” and the clearance ([3]; plasma, iv, i.v., serum 500 μL/rat, two-compartment model, read-out: CL, total body clearance (converted)) is given as 2.67 mL/min. For the same molecule, the Vd ([3]; plasma, iv, i.v., serum 500 μL/rat, two-compartment model, read-out: Vd, volume of distribution) was 0.19 ± 0.08 L/kg, the k el ([3]; plasma, iv, i.v., serum 500 μL/rat, two-compartment model, read-out: ke, elimination rate constant (converted)) was 0.00509 s⁻¹ and the half-life ([3]; plasma, iv, i.v., serum 500 μL/rat, two-compartment model, read-out: t1/2, elimination half-life time (converted)) was 0.99 ± 0.33 h. For the same molecule, the AUC(0-t) ([3]; plasma, iv, serum 500 μL/rat, two-compartment model) was 120 ± 20 ng·h/mL, the AUC(0-inf) ([3]; plasma, iv, serum with 34.8 μg/mL unchanged NRG and 134.5 μg/mL NRG metabolites, 500 μL/rat, two-compartment model) was 130 ± 20 ng·h/mL and the “distribution volume as share of the body weight” value ([3]; i.v.) was about 20%. For the same molecule, the solubility at 30 min (Solubility test (HPLC)) was 70 µg/mL (≈ 257 µM), the “dissolved NRG” value [4] was 40% and the AUC(0-t) ([5]; rat, plasma, po, 100 mg/kg, unchanged NRG in plasma, read-out: AUC0–1 h) was 30 ± 10 ng·h/mL. The AUC(0-t) ([5]; rat, plasma, po, 100 mg/kg, unchanged NRG in plasma, read-out: AUC0–t) was 740 ± 240 ng·h/mL, the bioavailability ([5]; rat, plasma, po, 100 mg/kg, unchanged NRG, read-out: F, absolute bioavailability) was about 0.5% and the AUC(0-inf) ([5]; rat, unchanged NRG in plasma) was 740 ± 240 ng·h/mL. The Cmax ([5]; rat, unchanged NRG in plasma) was 130 ± 10 ng/mL, the Tmax ([5]; rat, unchanged NRG in plasma) was 4 ± 1.26 h and the “F, absolute bioavailability” value ([5]; unchanged NRG) was 0.52 ± 0.17%.
